Measurements: US5830885A, “Antiproliferative vitamin D3 hybrids” (The Johns Hopkins University, priority 1996, dated 1998)
“Also recorded” adds a separate entry of the source. Like-named read-outs stand apart in the source and are kept apart here.

Columns and labels:
[1] = tested on: murine keratinocyte cells (cell line PE); assay: Growth inhibition of PE keratinocytes (MTT assay); format: cell-based; details: calcitriol vs 1-hydroxymethyl derivatives
Protocol: (§1) The compounds were tested for growth inhibition of murine keratinocyte cells (cell line PE) and for the inhibition of TPA-induced ornithine decarboxylase (ODC) activity.
The PE cell line culture medium used in the tests consisted of Eagle's minimal essential medium without calcium chloride supplemented with 8% chelexed fetal calf serum and 1% antibiotic-antimycotic and the addition of CaCl2 to 0.05 mM Ca^++.
PE cells were seeded at a density of 5,000 cells/well in 50 μl medium into 96-well microtiter plates. […] The plates were fed once at 48 hours, with the re addition of the vitamin D3 analogues at this time. At 24 hour intervals following the initial treatment of the cells with compounds, 0.1 mg ([…] of a 2 mg/ml solution) of MTT was added to the plates. After 4 hours, the MTT was removed and DMSO added to dissolve the blue formazan dye. Using a microtiter plate reader, the A505 was then determined and cell number calculated from blank-subtracted absorbance values.

[2] = tested on: ornithine decarboxylase (ODC); assay: Inhibition of TPA-induced ornithine decarboxylase (ODC) activity in PE cells; format: cell-based, murine; details: 1 μM, 15 minutes pretreatment, p<0.001
Protocol: as §1
The cell line PE was derived from a papilloma induced in female SENCAR mice by a standard skin initiation/promotion protocol (Carcinogenesis, 7:949-958 (1986), the entire contents of which are hereby incorporated by reference) and was chosen for its particular sensitivity to the induction of ornithine decarboxylase (ODC) activity by the extensively characterized tumor promoter TPA. The PE cell line culture medium used in the tests consisted of Eagle's minimal essential medium without calcium chloride supplemented with 8% chelexed fetal calf serum and 1% antibiotic-antimycotic and the addition of CaCl2 to 0.05 mM Ca^++.
100 cm^2 dishes of PE cells were treated with vitamin D3 or analogues dissolved in DMSO by direct addition into the culture medium. Fifteen minutes later, the plates were treated with 100 ng/ml TPA dissolved in ethanol. […]
Cytosolic ODC activity was determined in triplicate by measuring the release of ^14 CO2 from L-[^14 C]ornithine using an Eppendorf microvessel assay as previously described (Cancer Res., 43:2555-2559 (1983), the entire contents of which are hereby incorporated by reference).

U 937 cancer cells [3] = assay: Induction of cell differentiation in U 937 cancer cells (Table 5); format: cell-based, human
U 937 cancer cells [4] = assay: Viability of U 937 cancer cells (Table 5); format: cell-based; details: Homo sapiens
[5] = tested on: ornithine decarboxylase (ODC); details: literature; cited from earlier work
HL-60 cells = details: relative to 1,25D3; cited from earlier work
[6] = tested on: Human lymphoma cells U 937; details: relative to calcitriol = 1; cited from earlier work
[7] = tested on: Human lymphoma cells U 937; details: relative to calcitriol = 1; cited from earlier work; remark: listed apart in the source
Lewis rats = details: relative to calcitriol = 1; cited from earlier work
calf thymus VDR = target: T1, calf thymus VDR (Bos taurus, UniProt Q28037); assay: VDR binding assay, displacement of [^3 H]-1,25(OH)2 D3 from VDR; details: for Amount Bound (amount that results in 50% displacement of [^3 H]-1,25(OH)2 D3 from VDR): Table 3, calf thymus VDR
T1 construct: from the calf thymus VDR; from tissue; host or cells: calf thymus
T1 sequence (Q28037 1-426): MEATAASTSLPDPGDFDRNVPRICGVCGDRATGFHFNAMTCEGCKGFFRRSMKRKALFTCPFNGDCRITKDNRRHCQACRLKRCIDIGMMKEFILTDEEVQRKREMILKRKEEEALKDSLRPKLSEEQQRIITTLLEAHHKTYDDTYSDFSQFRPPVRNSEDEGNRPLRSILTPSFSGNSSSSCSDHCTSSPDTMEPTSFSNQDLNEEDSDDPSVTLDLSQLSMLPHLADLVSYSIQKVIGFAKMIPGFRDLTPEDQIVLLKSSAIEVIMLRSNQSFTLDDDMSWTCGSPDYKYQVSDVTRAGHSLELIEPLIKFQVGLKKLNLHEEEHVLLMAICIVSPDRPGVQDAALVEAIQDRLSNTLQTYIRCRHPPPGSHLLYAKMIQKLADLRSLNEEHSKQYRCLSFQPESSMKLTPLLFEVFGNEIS
Protocol: The VDR binding assay was performed according to the procedure of Reinhardt, T. A., Horst, R. L., Orf, J. W., Hollis, B. W., J. Clin. Endocrin. Metab., 58: 91-98 (1984), the entire contents of which are hereby incorporated herein by reference.

keratinocyte = assay: Dose-response effects on keratinocyte proliferation (FIGS. 3, 4, 9, 10); format: cell-based; details: cell numbers at 0 and 96 hours
Protocol: N0 represents the number of cells at zero hours and N1 represents the number of cells at 96 hours.

MDA 468 cells = assay: Thymidine incorporation by MDA 468 human breast cancer cells; format: cell-based; details: FIGS. 6A and 6B
Source text: (§2) FIGS. 6A and 6B show a comparison of the effects of 1,25(OH)2 D3 (filled squares), YA (filled circles) and YB (filled triangles) on thymidine incorporation by human breast cancer cell lines MDA 468 and SKBr 3.

calcium channels = assay: Calcium channel opening assay; format: cell-based
U 937 cancer cells [8] = assay: Inhibition of cell proliferation in U 937 cancer cells (Table 5); format: cell-based, human; details: for IC50: Homo sapiens, U 937 cells; for inhibiting cell proliferation (in words): U 937, YB vs 1,25(OH)2 D3, YA up to 10^-7 M
[9] = Solubility in organic solvents; format: physicochemical; details: methylene chloride, chloroform, methanol; for YA/YB also EtOAc, acetone
cell differentiation = assay: Induction of differentiation (ratings of Table 2); format: cell-based; details: for differentiation inducing activity: compared with calcitriol
cell proliferation [10] = assay: Anti-proliferative activity (summary statements); format: cell-based; details: compared with calcitriol or in general words
[11] = tested on: RWLeu-4 human CML cell line; assay: Proliferation of RWLeu-4 human chronic myelogenous leukemic cells; format: cell-based; details: even at 50 nM; FIG. 5
Source text: MCW-II5-y-A is compound YA and MCW-II5-y-B is compound YB.

[12] = tested on: human breast cancer cell lines MDA 468 and SKBr 3; assay: Thymidine incorporation by human breast cancer cell lines; format: cell-based; details: human breast cancer cells; FIGS. 6A and 6B
Source text: as §2

cell proliferation [13] = assay: Inhibition of proliferation (ratings of Table 2); format: cell-based; details: Table 2 rating
[14] = at 10^-7 M, read-out: Viability

SMILES	inducing cell differentiation (in words) (U 937 cancer cells [3]; at a concentration of 10^-8 M)	Amount Bound (amount that results in 50% displacement of [^3 H]-1,25(OH)2 D3 from VDR) (calf thymus VDR) [µg]	effect on keratinocyte proliferation (keratinocyte)	Average peak shift compared to control (calcium channels; 0.05 nM) [mV]	Average peak shift compared to control (calcium channels; 0.5 nM) [mV]	Average peak shift compared to control (calcium channels; 5 nM) [mV]	Average peak shift compared to control (calcium channels; 50 nM) [mV]	IC50 (U 937 cancer cells [8]) [nM]	inhibiting cell proliferation (in words) (U 937 cancer cells [8])	viability at 0.1 µM (U 937 cancer cells [4]; [14]) [%]	solubility in organic solvents [9]	differentiation inducing activity (cell differentiation)	other results
C=C1/C(=C\C=C2/CCC[C@]3(C)[C@@H]([C@H](C)CCCC(C)(C)O)CC[C@@H]23)C[C@@H](O)C[C@@H]1O [Calcitriol, 1α,25-dihydroxyvitamin D3, reference compound]	effective in inducing cell differentiation	–	–	–	–	–	–	–	–	–	–	–	growth inhibition of PE cells, comparison of potency [1]: equipotent at inhibiting growth of PE cells; inhibition of TPA-induced ODC activity [2]: significantly inhibited the effects of TPA; inhibition of TPA-induced ODC activity ([2]; listed as calcitriol): statistically significant reduction in TPA-induced ODC activity; viability at 0.1 µM (U 937 cancer cells [4]): 99%; inhibition of TPA effects on ODC induction as well as TPA-stimulated tumor promotion [5]: shown to inhibit TPA effects on ODC induction
C=C1/C(=C\C=C2/CCC[C@]3(C)[C@@H]([C@@H](C)OCCCC(O)(CC)CC)CC[C@@H]23)C[C@@H](O)C[C@@H]1O [KH-1060]	–	–	–	–	–	–	–	–	–	–	–	–	times as effective as 1,25D3 in the induction of leukemic cell (HL-60) differentiation (HL-60 cells): 133 times; Relative Potency, Inhibition of Proliferation [6]: 31,000; Relative Potency, Induction of Differentiation [7]: 100,000; Relative Potency, Calcemic Effects (Lewis rats): 1.3
C=C1/C(=C\C=C2/CCC[C@]3(C)[C@@H]([C@@H](C)OCCCC(O)(CC)CC)CC[C@@H]23)C[C@@H](O)C[C@@H]1CO [YA, 22-oxa-1-(hydroxymethyl)-26-(hydroxydiethyl) vitamin D3]	–	2.2	not effective for inhibition of proliferation	1.0 ± 0.1	10.8 ± 1.5	16.1 ± 4.1	18.6 ± 3.3	> 100	ineffective	99	sparingly soluble	relatively ineffective in inducing differentiation	VDR binding (in words) (calf thymus VDR): even weaker binding for VDR than YB; also recorded: low VDR binding; inhibition of growth (suppression of thymidine incorporation) (MDA 468 cells): appears to have no effect; inducing cell differentiation (in words) (U 937 cancer cells [3]; at 10^-7 M): inactive; anti-proliferative activity (cell proliferation [10]): relatively ineffective in inducing differentiation or inhibiting proliferation
C=C1/C(=C\C=C2/CCC[C@]3(C)[C@@H]([C@@H](C)OCCCC(O)(CC)CC)CC[C@@H]23)C[C@H](O)C[C@H]1CO [YB, 22-oxa-1-(hydroxymethyl)-26-(hydroxydiethyl) vitamin D3]	effective in inducing cell differentiation	0.0295	comparable to that of calcitriol	3.6 ± 2.2	13.2 ± 2.8	16.6 ± 2.8	18.4 ± 2.1	60	about one third as active	99	sparingly soluble	comparable to that of calcitriol	times less strongly bound to VDR than 1,25(OH)2 D3 (calf thymus VDR; relative to 1,25(OH)2 D3): about 1300 times; anti-proliferative effect on RWLeu-4 cells [11]: comparable to or slightly greater than that of calcitriol; inhibition of growth (suppression of thymidine incorporation) [12]: very comparable to calcitriol; Inhibition of Proliferation (rating) (cell proliferation [13]): 1; Induction of Differentiation (rating) (cell differentiation; Table 2 rating): 1
